Data as given in US20240284907A1, “NOVEL DERIVATIVES OF NON-CODED AMINO ACIDS AND THEIR USE AS HERBICIDES” (FortePhest LTD., priority 2021, published 2024).

Assays:
Assay type in all cases: in vivo
[1] = system: Romaine lettuce (Lactuca sativa L.) plants; test: Post-emergence herbicidal activity on potted Romaine lettuce plants (soil or foliar application); conditions: lettuce at 2 to 3 leaves, two weeks after treatment
Protocol: The tests were performed on Romaine lettuce (Lactuca sativa L.) plants at the stage 2 to 3 leaves. The plants were grown in mini-pots packed with soil, dimensions 2×2×5 cm, one plant per mini-pot. Test compounds were dissolved in 0.1% aqueous solution water solution of Silwet adjuvant to final concentrations ranging from 0 (Control) to 0.0001%. The test compounds were applied on soil (1 ml per pot) or foliar with airbrush (0.1 ml per pot). Each concentration was tested on 20 plants. Two weeks after the treatment the herbicidal effects of the respective test material were visually evaluated (aboveground part and roots. Then the aboveground part of the plants was neatly cut and weighed (wet weight) to assess the growth inhibition caused by the test compound. The growth inhibition (GI) was calculated as following: […]
Where Mt and Mc are median wet weight of treated and control plants, respectively. In the context of the invention, the herbicidal effect was assessed by concentration of the compound causing more than 85% of Growth Inhibition (GI) or irreversible damage of the plants (Table 3). Herbicidal activity of selected DHAAs is summarized in Table 4 (soil application) and Table 5 (Foliar application).

[2] = system: Seeds of Lettuce R. (Super-Jericho); test: Filter paper bioassay with lettuce seeds: germination and early plant development, Minimal Effective Concentration (MEC); conditions: lettuce seeds on filter paper, 0 to 1 mmol/l, visually assessed after 6 days
Outline: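 Visual scoring on day 6 of radicle and shoot growth gives the MEC, the lowest dose deviating from control (no germination or malformation). Seeds (lettuce Super-Jericho, 10 per plate) sat on filter paper with 0–1 mmol/l aqueous compound, 48 h dark then 4 days 6/18 dark/light, in at least two repeats.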

[3] = system: Seeds of Lettuce R. (Super-Jericho); test: Filter paper bioassay with lettuce seeds: germination, Fully Effective Concentration (FEC); conditions: lowest concentration mostly preventing lettuce seed germination, assessed after 6 days
Source text: Materials: Seeds of Lettuce R. (Super-Jericho, non-sterilized) were obtained from Ben Shahar Moshe Ltd., 99% purity. The test compounds listed in the Table 2 below were synthetized de novo or purchased from different vendors.
Filter Paper Bioassays with Lettuce seeds: The protocol is following Bertin et al. 2009 and Movellan et al. 2014 with specified modifications as described below.
Seeds were placed on Whatman no. 1 filter paper (Whatman, Middlesex, U.K.) in Petri dishes (10 seeds per plate) with 2.0 ml of aqueous solution of a test material in concentration ranged from 0 (control) to 1 mmol/l were placed in a tray tilted at 45°. The trays were kept in dark for 48 hours and then transferred to the growth chamber with 6/18 dark/light cycle for 4 days. Each experiment was performed at least with two repeats.
The development of plants' radicle and shoots were visually assessed 6 days after the beginning of the test to determine Fully Effective Concentration (FEC) of a test material. In the context of the invention, FED is defined as the lowest concentration level of a test material that mostly preventing seeds germination.

2,5,8,11,14-pentaoxahexadecan-16-yl 2-(2-chloro-1,3-thiazol-4-yl)-2,2-difluoroacetate [compound 5778]
Score (test material causing more than 85% of Growth Inhibition or irreversible plant damage) ([1]; foliar application): moderate (0.5) | Score (activity score of Minimal Effective Concentration, MEC) [2]: very strong | FEC (Fully Effective Concentration) [3]: 5.000 mM

2-(2-bromo-1,3-thiazol-4-yl)-2,2-difluoroacetic acid [compound 5730]
Score (test material causing more than 85% of Growth Inhibition or irreversible plant damage) ([1]; foliar application): strong (0.01 to 0.05) | Score (test material causing more than 85% of Growth Inhibition or irreversible plant damage) ([1]; soil application): strong (0.01 to 0.05) | Score (activity score of Minimal Effective Concentration, MEC) [2]: very strong | FEC (Fully Effective Concentration) [3]: 0.010 mM

2-(2-methoxyethoxy)ethyl(2-chloro-1,3-thiazol-4-yl)(difluoro)acetate [compound 5746]
Score (test material causing more than 85% of Growth Inhibition or irreversible plant damage) ([1]; foliar application): strong (0.01 to 0.05) | Score (test material causing more than 85% of Growth Inhibition or irreversible plant damage) ([1]; soil application): strong (0.01 to 0.05) | Score (activity score of Minimal Effective Concentration, MEC) [2]: very strong | FEC (Fully Effective Concentration) [3]: 0.001 mM

2-(2-methoxyethoxy)ethyl(2-chloro-1,3-thiazol-4-yl)(difluoro)acetate [compound 5771]
Score (test material causing more than 85% of Growth Inhibition or irreversible plant damage) ([1]; foliar application): strong (0.01 to 0.05) | Score (activity score of Minimal Effective Concentration, MEC) [2]: very strong | FEC (Fully Effective Concentration) [3]: 0.050 mM

2-(4-methylphenyl)-2-oxoethyl(2-chloro-1,3-thiazol-4-yl)(difluoro)acetate [compound 5738]
Score (test material causing more than 85% of Growth Inhibition or irreversible plant damage) ([1]; foliar application): moderate (0.5) | Score (test material causing more than 85% of Growth Inhibition or irreversible plant damage) ([1]; soil application): strong (0.01 to 0.05) | Score (activity score of Minimal Effective Concentration, MEC) [2]: very strong | FEC (Fully Effective Concentration) [3]: 0.010 mM

3-(2-chlorothiophen-3-yl)-3,3-difluoro-2-hydroxypropanenitrile [compound 5761]
Score (test material causing more than 85% of Growth Inhibition or irreversible plant damage) ([1]; soil application): strong (0.01 to 0.05) | Score (activity score of Minimal Effective Concentration, MEC) [2]: Strong (0.01 mM) | FEC (Fully Effective Concentration) [3]: 0.100 mM

NCCc1cc(Cl)sc1Cl [compound 584, 2-(2,5-dichlorothiophen-3-yl) ethan-1-amine]
Score (test material causing more than 85% of Growth Inhibition or irreversible plant damage) ([1]; soil application): weak (1.0) | Score (activity score of Minimal Effective Concentration, MEC) [2]: moderate | FEC (Fully Effective Concentration) [3]: 0.500 mM

O=C(O)/C=C/c1sc(Cl)nc1Cl [compound 5622, (2E)-3-(2,4-dichloro-1,3-thiazol-5-yl)prop-2-enoic acid]
Score (activity score of Minimal Effective Concentration, MEC) [2]: Moderate (0.1 mM) | FEC (Fully Effective Concentration) [3]: 1.000 mM

O=C(O)CNC(=O)C(F)(F)c1cc(Cl)sc1Cl [compound 5644, [2-(2,5-dichlorothiophen-3-yl)(difluoro)acetamido]acetic acid]
Score (activity score of Minimal Effective Concentration, MEC) [2]: Strong (0.01 mM) | FEC (Fully Effective Concentration) [3]: 1.000 mM

NCCCCc1cc(Cl)sc1Cl [compound 5657, 4-(2,5-dichlorothiophen-3-yl)butan-1-amine]
Score (activity score of Minimal Effective Concentration, MEC) [2]: Moderate (0.1 mM) | FEC (Fully Effective Concentration) [3]: 0.100 mM

O=C(OCc1ccccc1)C(F)(F)c1cc(Cl)sc1Cl [compound 5709, benzyl(2,5-dichlorothiophen-3-yl)(difluoro)acetate]
Score (test material causing more than 85% of Growth Inhibition or irreversible plant damage) ([1]; foliar application): moderate (0.5) | Score (activity score of Minimal Effective Concentration, MEC) [2]: very strong | FEC (Fully Effective Concentration) [3]: 0.100 mM

Cc1sc(C(F)(F)F)nc1C(F)(F)C(=O)O [compound 5717, 2,2-difluoro-2-[5-methyl-2-(trifluoromethyl)-1,3-thiazol-4-yl]acetic acid]
Score (activity score of Minimal Effective Concentration, MEC) [2]: Strong (0.01 mM) | FEC (Fully Effective Concentration) [3]: 0.100 mM

O=C(O)C(F)(F)c1ccsc1C(F)(F)F [compound 5728, difluoro[2-(trifluoromethyl)thiophen-3-yl]acetic acid]
Score (test material causing more than 85% of Growth Inhibition or irreversible plant damage) ([1]; foliar application): strong (0.01 to 0.05) | Score (test material causing more than 85% of Growth Inhibition or irreversible plant damage) ([1]; soil application): strong (0.01 to 0.05) | Score (activity score of Minimal Effective Concentration, MEC) [2]: Strong (0.01 mM) | FEC (Fully Effective Concentration) [3]: 1.000 mM

O=C(O)C(F)(F)c1nc(Cl)sc1F [compound 5751, (2-chloro-5-fluoro-1,3-thiazol-4-yl)(difluoro)acetic acid]
Score (activity score of Minimal Effective Concentration, MEC) [2]: strong.strong | FEC (Fully Effective Concentration) [3]: 0.100 mM

O=C(Cc1ccc(Br)cc1)C(F)(F)c1csc(Cl)n1 [compound 5756, 3-(4-bromophenyl)-1-(2-chloro-1,3-thiazol-4-yl)-1,1-difluoropropan-2-one]
Score (activity score of Minimal Effective Concentration, MEC) [2]: very strong | FEC (Fully Effective Concentration) [3]: 0.010 mM

O=C(Cc1csc(Cl)n1)OCc1ccccc1 [compound 5758, benzyl 2-(2-chloro-1,3-thiazol-4-yl)acetate]
Score (activity score of Minimal Effective Concentration, MEC) [2]: Strong (0.01 mM) | FEC (Fully Effective Concentration) [3]: 0.100 mM

O=C(OCc1ccccc1)C(F)(F)c1csc(Cl)n1 [compound 5762, benzyl (2-chloro-1,3-thiazol-4-yl)(difluoro)acetate]
Score (activity score of Minimal Effective Concentration, MEC) [2]: very strong | FEC (Fully Effective Concentration) [3]: 0.010 mM

NC(N)=NCCc1cc(Cl)sc1Cl [compound 5769, N″-[2-(2,5-dichlorothiophen-3-yl)ethyl]guanidine]
Score (activity score of Minimal Effective Concentration, MEC) [2]: Strong (0.01 mM) | FEC (Fully Effective Concentration) [3]: 0.100 mM

N#Cc1cscc1C(F)(F)C(=O)O [compound 5779, (4-cyanothiophen-3-yl)(difluoro)acetic acid]
Score (activity score of Minimal Effective Concentration, MEC) [2]: Strong (0.01 mM) | FEC (Fully Effective Concentration) [3]: 1.000 mM

(2-bromophenyl)methyl(2,5-dichlorothiophen-3-yl)(difluoro)acetate [compound 5747]
Score (test material causing more than 85% of Growth Inhibition or irreversible plant damage) ([1]; foliar application): moderate (0.5) | Score (test material causing more than 85% of Growth Inhibition or irreversible plant damage) ([1]; soil application): moderate (0.5) | Score (activity score of Minimal Effective Concentration, MEC) [2]: very strong | FEC (Fully Effective Concentration) [3]: 0.500 mM

(2-bromophenyl)methyl(2,5-dichlorothiophen-3-yl)(difluoro)acetate [compound 5772]
Score (test material causing more than 85% of Growth Inhibition or irreversible plant damage) ([1]; foliar application): moderate (0.5) | Score (test material causing more than 85% of Growth Inhibition or irreversible plant damage) ([1]; soil application): strong (0.01 to 0.05) | Score (activity score of Minimal Effective Concentration, MEC) [2]: Strong (0.01 mM) | FEC (Fully Effective Concentration) [3]: 0.500 mM

(4-bromophenyl)methyl(2,5-dichlorothiophen-3-yl)(difluoro)acetate [compound 5768]
Score (test material causing more than 85% of Growth Inhibition or irreversible plant damage) ([1]; foliar application): strong (0.01 to 0.05) | Score (test material causing more than 85% of Growth Inhibition or irreversible plant damage) ([1]; soil application): moderate (0.5) | Score (activity score of Minimal Effective Concentration, MEC) [2]: Strong (0.01 mM) | FEC (Fully Effective Concentration) [3]: 0.500 mM

(4-bromophenyl)methyl(2,5-dichlorothiophen-3-yl)acetate [compound 5735]
Score (activity score of Minimal Effective Concentration, MEC) [2]: strong.strong | FEC (Fully Effective Concentration) [3]: 0.500 mM

(6-bromopyridin-2-yl)methyl2-(2,5-dichlorothiophen-3-yl)-2,2-difluoroacetate [compound 5757]
Score (test material causing more than 85% of Growth Inhibition or irreversible plant damage) ([1]; soil application): strong (0.01 to 0.05) | Score (activity score of Minimal Effective Concentration, MEC) [2]: Strong (0.01 mM) | FEC (Fully Effective Concentration) [3]: 0.100 mM

(6-bromopyridin-2-yl)methyl(2,5-dichlorothiophen-3-yl)acetate [compound 5759]
Score (test material causing more than 85% of Growth Inhibition or irreversible plant damage) ([1]; foliar application): strong (0.01 to 0.05) | Score (test material causing more than 85% of Growth Inhibition or irreversible plant damage) ([1]; soil application): strong (0.01 to 0.05) | Score (activity score of Minimal Effective Concentration, MEC) [2]: very strong | FEC (Fully Effective Concentration) [3]: 0.010 mM

ethyl 2-(2-chloro-1,3-thiazol-4-yl)-2,2-difluoroacetate [compound 5784]
Score (activity score of Minimal Effective Concentration, MEC) [2]: very strong | FEC (Fully Effective Concentration) [3]: 0.050 mM

ethyl(2,5-dichloro-1,3-thiazol-4-yl)(difluoro)acetate [compound 5655]
Score (test material causing more than 85% of Growth Inhibition or irreversible plant damage) ([1]; foliar application): strong (0.01 to 0.05) | Score (test material causing more than 85% of Growth Inhibition or irreversible plant damage) ([1]; soil application): strong (0.01 to 0.05) | Score (activity score of Minimal Effective Concentration, MEC) [2]: Strong (0.01 mM) | FEC (Fully Effective Concentration) [3]: 1.000 mM
